Data taken from the supplement of paper PMC8967900.

Experiments:
Assay in all cases: selective drug sensitivity score (sDSS, relative to normal bone marrow) (sDSS (score)); higher = more potent and effective on the cell line relative to normal bone marrow cells
Details in all cases: 72 h
NALL-1 = tested on: NALL-1
MOLT-16 = tested on: MOLT-16
COG-LL-319h = tested on: COG-LL-319h
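Further: ALL cell lines in 384-well plates, five doses spanning 10,000-fold, each plate scaled between vehicle and 100 µmol/L benzalkonium chloride controls, sDSS an adapted area-under-curve metric.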

Cc1ccc(-n2nc(C(C)(C)C)cc2NC(=O)Nc2ccc(OCCN3CCOCC3)c3ccccc23)cc1 [Doramapimod] (top concentration 10000 nM)
selective drug sensitivity score (NALL-1): -0.24
selective drug sensitivity score (MOLT-16): 4.16
selective drug sensitivity score (COG-LL-319h): 1.06

Cc1ccc(NS(=O)(=O)c2cccc(C#N)c2)c2[nH]cc(C#N)c12 [E7820] (top concentration 50000 nM)
selective drug sensitivity score (NALL-1): 6.42
selective drug sensitivity score (MOLT-16): 22.6
selective drug sensitivity score (COG-LL-319h): 18

C[C@@H]1CN(C(=O)c2ccc(NC(=O)c3cc(O[C@H](C)c4c(Cl)ccc(F)c4Cl)c(N)nn3)cc2)C[C@H](C)N1 [Ensartinib] (top concentration 1000 nM)
selective drug sensitivity score (NALL-1): -2.84
selective drug sensitivity score (MOLT-16): -0.74
selective drug sensitivity score (COG-LL-319h): -2.64

c1cn2cc(-c3ccc4cn[nH]c4c3)nc(Nc3ccc(N4CCOCC4)cc3)c2n1 [Entospletinib] (top concentration 5000 nM)
selective drug sensitivity score (NALL-1): -0.64
selective drug sensitivity score (MOLT-16): -0.64
selective drug sensitivity score (COG-LL-319h): -0.64

COc1cc([C@@H]2c3cc4c(cc3[C@@H](O[C@@H]3O[C@@H]5CO[C@@H](C)O[C@H]5[C@H](O)[C@H]3O)[C@H]3COC(=O)[C@H]23)OCO4)cc(OC)c1O [Etoposide] (top concentration 10000 nM)
selective drug sensitivity score (NALL-1): 14.9
selective drug sensitivity score (MOLT-16): 28.9
selective drug sensitivity score (COG-LL-319h): 23.2

CCCCCCCCc1ccc(CCC(N)(CO)CO)cc1 [Fingolimod] (top concentration 10000 nM)
selective drug sensitivity score (NALL-1): 6.18
selective drug sensitivity score (MOLT-16): 5.38
selective drug sensitivity score (COG-LL-319h): 0.28

O=C(NOCCO)c1ccc2cncn2c1Nc1ccc(I)cc1F [GDC-0623] (top concentration 2500 nM)
selective drug sensitivity score (NALL-1): -0.5
selective drug sensitivity score (MOLT-16): -1.6
selective drug sensitivity score (COG-LL-319h): -2.1

C[C@H]1CN(C2COC2)CCN1c1ccc(Nc2cc(-c3ccnc(N4CCn5c(cc6c5CC(C)(C)C6)C4=O)c3CO)cn(C)c2=O)nc1 [GDC-0853] (top concentration 1000 nM)
selective drug sensitivity score (NALL-1): 0
selective drug sensitivity score (MOLT-16): 0
selective drug sensitivity score (COG-LL-319h): 2.8

CCNc1nc(Nc2cc(F)c(C(=O)N3CCOCC3)cc2OC)ncc1C(F)(F)F [GNE-7915] (top concentration 1000 nM)
selective drug sensitivity score (NALL-1): -0.06
selective drug sensitivity score (MOLT-16): -0.06
selective drug sensitivity score (COG-LL-319h): -0.06

COc1cc2ncnc(Nc3ccc(F)c(Cl)c3)c2cc1OCCCN1CCOCC1 [Gefitinib] (top concentration 10000 nM)
selective drug sensitivity score (NALL-1): 1.06
selective drug sensitivity score (MOLT-16): 3.36
selective drug sensitivity score (COG-LL-319h): 5.66

CN1CC[C@@H](NC(=O)Nc2ccc(C#N)cc2)C[C@@H]1c1nc2ccccc2[nH]1 [Glasdegib] (top concentration 1000 nM)
selective drug sensitivity score (NALL-1): 0.1
selective drug sensitivity score (MOLT-16): 0
selective drug sensitivity score (COG-LL-319h): 4.1

CN1CCN(C2CCN(C(=O)Nc3cc(Oc4ccc(NC(=O)C5(C(=O)Nc6ccc(F)cc6)CC5)c(F)c4)ccn3)CC2)CC1 [Golvatinib] (top concentration 2500 nM)
selective drug sensitivity score (NALL-1): -0.14
selective drug sensitivity score (MOLT-16): -0.14
selective drug sensitivity score (COG-LL-319h): -0.14

CC(C)C[C@H](NC(=O)[C@@H](COC(C)(C)C)NC(=O)[C@H](Cc1ccc(O)cc1)NC(=O)[C@H](CO)NC(=O)[C@H](Cc1c[nH]c2ccccc12)NC(=O)[C@H](Cc1cnc[nH]1)NC(=O)[C@@H]1CCC(=O)N1)C(=O)N[C@@H](CCCNC(=N)N)C(=O)N1CCC[C@H]1C(=O)NNC(N)=O [Goserelin] (top concentration 10000 nM)
selective drug sensitivity score (NALL-1): -0.06
selective drug sensitivity score (MOLT-16): 0.14
selective drug sensitivity score (COG-LL-319h): 4.84

O=S(=O)(c1cccc2c(O)nccc12)N1CCCNCC1 [Hydroxyfasudil] (top concentration 19000 nM)
selective drug sensitivity score (NALL-1): 2.58
selective drug sensitivity score (MOLT-16): -0.02
selective drug sensitivity score (COG-LL-319h): -0.72

COc1cc(C(=O)O)ccc1NC(=O)[C@@H]1N[C@@H](CC(C)(C)C)[C@](C#N)(c2ccc(Cl)cc2F)[C@H]1c1cccc(Cl)c1F [Idasanutlin] (top concentration 10000 nM)
selective drug sensitivity score (NALL-1): -8.44
selective drug sensitivity score (MOLT-16): 21.3
selective drug sensitivity score (COG-LL-319h): 17

CCN1CCN(c2ccc(Nc3cc(N(C)C(=O)Nc4c(Cl)c(OC)cc(OC)c4Cl)ncn3)cc2)CC1 [Infigratinib] (top concentration 1000 nM)
selective drug sensitivity score (NALL-1): 0
selective drug sensitivity score (MOLT-16): 0
selective drug sensitivity score (COG-LL-319h): 0

O=C(Nc1cnn2ccc(N3CCC[C@@H]3c3cc(F)ccc3F)nc12)N1CC[C@H](O)C1 [Larotrectinib] (top concentration 1000 nM)
selective drug sensitivity score (NALL-1): -0.62
selective drug sensitivity score (MOLT-16): -0.62
selective drug sensitivity score (COG-LL-319h): 3.78

C[C@]1(O)C[C@@H](c2nc(-c3ccc4ccc(-c5ccccc5)nc4c3)c3c(N)nccn32)C1 [Linsitinib] (top concentration 10000 nM)
selective drug sensitivity score (NALL-1): -0.08
selective drug sensitivity score (MOLT-16): -3.18
selective drug sensitivity score (COG-LL-319h): -1.78

O=C(O)CC[C@H]1CC[C@@](c2cc(F)ccc2F)(S(=O)(=O)c2ccc(Cl)cc2)CC1 [MK-0752] (top concentration 1000 nM)
selective drug sensitivity score (NALL-1): 8.6
selective drug sensitivity score (MOLT-16): 0
selective drug sensitivity score (COG-LL-319h): 0

CNC(=O)[C@@H](NC(=O)[C@H](CC(C)C)[C@H](O)C(=O)NO)C(C)(C)C [Marimastat] (top concentration 10000 nM)
selective drug sensitivity score (NALL-1): 4.12
selective drug sensitivity score (MOLT-16): 2.82
selective drug sensitivity score (COG-LL-319h): -1.28

Clc1ccc(C(c2ccccc2Cl)C(Cl)Cl)cc1 (stereo not given) [Mitotane] (top concentration 10000 nM)
selective drug sensitivity score (NALL-1): -0.08
selective drug sensitivity score (MOLT-16): -0.08
selective drug sensitivity score (COG-LL-319h): -0.08

CCS(=O)(=O)Nc1ccc(Oc2ccc(F)cc2F)c(-c2cn(C)c(=O)c3[nH]ccc23)c1 [Mivebresib] (top concentration 10000 nM)
selective drug sensitivity score (NALL-1): 0.6
selective drug sensitivity score (MOLT-16): 13.1
selective drug sensitivity score (COG-LL-319h): 7.7

CN1C(=O)N[C@H](Cc2c[nH]c3c(Cl)cccc23)C1=O [Necrostatin_2] (top concentration 10000 nM)
selective drug sensitivity score (NALL-1): -0.08
selective drug sensitivity score (MOLT-16): -0.08
selective drug sensitivity score (COG-LL-319h): -0.08

O=c1ncn2nc(Sc3ccc(F)cc3F)ccc2c1-c1c(Cl)cccc1Cl [Neflamapimod] (top concentration 10000 nM)
selective drug sensitivity score (NALL-1): 2.1
selective drug sensitivity score (MOLT-16): 2.1
selective drug sensitivity score (COG-LL-319h): 0

CC(O)c1cc(C(=O)N[C@@H](C)Cn2ccc(-c3ccc(C#N)c(Cl)c3)n2)n[nH]1 (stereo not given in full) [ODM-201] (top concentration 2500 nM)
selective drug sensitivity score (NALL-1): -0.28
selective drug sensitivity score (MOLT-16): 1.82
selective drug sensitivity score (COG-LL-319h): 10.6

C=CC(=O)Nc1cccc(Oc2nc(Nc3ccc(N4CCN(C)CC4)cc3)nc3ccsc23)c1 [Olmutinib] (top concentration 1000 nM)
selective drug sensitivity score (NALL-1): 5.88
selective drug sensitivity score (MOLT-16): -0.02
selective drug sensitivity score (COG-LL-319h): -0.02

C=CC(=O)Nc1cc(Nc2nccc(-c3cn(C)c4ccccc34)n2)c(OC)cc1N(C)CCN(C)C [Osimertinib] (top concentration 2500 nM)
selective drug sensitivity score (NALL-1): 0.58
selective drug sensitivity score (MOLT-16): -0.82
selective drug sensitivity score (COG-LL-319h): -4.12

O=C(Nc1cc(Cl)cc2c1[nH]c1cnccc12)c1cccnc1 [PS-1145] (top concentration 25000 nM)
selective drug sensitivity score (NALL-1): 9.14
selective drug sensitivity score (MOLT-16): -0.16
selective drug sensitivity score (COG-LL-319h): -0.46

CC(=O)O[C@H]1C(=O)[C@@]2(C)[C@H]([C@H](OC(=O)c3ccccc3)[C@]3(O)C[C@H](OC(=O)[C@H](O)[C@@H](NC(=O)c4ccccc4)c4ccccc4)C(C)=C1C3(C)C)[C@]1(OC(C)=O)CO[C@@H]1C[C@@H]2O [Paclitaxel] (top concentration 1000 nM)
selective drug sensitivity score (NALL-1): 12.2
selective drug sensitivity score (MOLT-16): 21.7
selective drug sensitivity score (COG-LL-319h): 21.5

CCCCCCCCCCCCCCCCCCOP(=O)([O-])OC1CC[N+](C)(C)CC1 [Perifosine] (top concentration 2500 nM)
selective drug sensitivity score (NALL-1): -0.36
selective drug sensitivity score (MOLT-16): -0.36
selective drug sensitivity score (COG-LL-319h): -0.26

CC[C@@H]1C(=O)OC[C@@H]1Cc1cncn1C [Pilocarpine] (top concentration 40000 nM)
selective drug sensitivity score (NALL-1): 7.44
selective drug sensitivity score (MOLT-16): 1.94
selective drug sensitivity score (COG-LL-319h): -1.56

Nc1cccc2c1C(=O)N(C1CCC(=O)NC1=O)C2=O (stereo not given) [Pomalidomide] (top concentration 10000 nM)
selective drug sensitivity score (NALL-1): -0.06
selective drug sensitivity score (MOLT-16): -0.26
selective drug sensitivity score (COG-LL-319h): -0.26

Cc1nc(=O)c2cc(CN(C)c3ccc(C(=O)N[C@@H](CCC(=O)O)C(=O)O)s3)ccc2[nH]1 [Raltitrexed] (top concentration 1000 nM)
selective drug sensitivity score (NALL-1): 12.8
selective drug sensitivity score (MOLT-16): 25.3
selective drug sensitivity score (COG-LL-319h): 25.7

C=CC(=O)Nc1cccc(Nc2nc(Nc3ccc(N4CCN(C(C)=O)CC4)cc3OC)ncc2C(F)(F)F)c1 [Rociletinib] (top concentration 10000 nM)
selective drug sensitivity score (NALL-1): 3.14
selective drug sensitivity score (MOLT-16): 2.04
selective drug sensitivity score (COG-LL-319h): 0.24

CC(C)N(CCCNC(=O)Nc1ccc(C(C)(C)C)cc1)C[C@H]1O[C@@H](n2cc(Br)c3c(N)ncnc32)[C@H](O)[C@@H]1O [SGC0946] (top concentration 10000 nM)
selective drug sensitivity score (NALL-1): 5.58
selective drug sensitivity score (MOLT-16): 0.78
selective drug sensitivity score (COG-LL-319h): -1.12
